A short description of this data set: recombinant barcode read abundance after kanamycin selection (control-corrected) (log10(CPM+1)); higher = more efficient recombination; sequences stand for … in AGTGCAGAGAAAATCGGCCAGTTTTCTCTGCCTGCAGTCCGCATGCCGT…ATTTATGCAGCGGACTGCCTTTCTCCCAAAGTGATAAACCGGACAGTATCATGGACCGGTTTTCCCGGTAATCCGTATTTGCAAGGTTGGTTTCACT; site = the 11-nt target. The essentials: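 Targets and IS621 bridge RNA target-binding loops were paired in oligos, each with a promoter, a barcode and the J23119-driven first 104 bridge RNA bases. A vector carrying the remaining 73 bp and a T7-inducible recombinase received these by Gibson cloning, and the pool was co-electroporated into E. coli with a donor plasmid. Duplicate plates contained chloramphenicol/ampicillin LB agar (control) or chloramphenicol/ampicillin/kanamycin with 0.1 mM IPTG. Recombination efficiency comes from averaged, control-corrected counts per million of recombinant-junction barcodes, reported as log10(CPM+1).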

For the sequence “GCGCGACCCTGGGTTCTAACCTGTTGCTTGG [GCGCGACCTAA_LTGcore_CC_RTGcore_CC] (site GCGCGACCTAA) (LTG core: CC, RTG core: CC)”, the “recombinant barcode read abundance (log10)” value was 0.0343.
For “GCGCGACCTTGGGTTCTAACCTGTTGCTTAA [GCGCGACCTAA_LTGcore_CT_RTGcore_TT] (site GCGCGACCTAA) (LTG core: CT, RTG core: TT)”, the “recombinant barcode read abundance (log10)” value was found to be 0.166.
The same measure for “GCGCGACCTTGGGTTCTAACCTGTTGCTTAT [GCGCGACCTAA_LTGcore_CT_RTGcore_AT] (site GCGCGACCTAA) (LTG core: CT, RTG core: AT)”: 0.103; for “GCGCGACCTTGGGTTCTAACCTGTTGCTTCA [GCGCGACCTAA_LTGcore_CT_RTGcore_TG] (site GCGCGACCTAA) (LTG core: CT, RTG core: TG)”: 0.481.
As for “GCGCGACCTTGGGTTCTAACCTGTTGCTTCG [GCGCGACCTAA_LTGcore_CT_RTGcore_CG] (site GCGCGACCTAA) (LTG core: CT, RTG core: CG)”, the “recombinant barcode read abundance (log10)” value amounted to 0.116.
The same measure for “GCGCGACCTTGGGTTCTAACCTGTTGCTTTT [GCGCGACCTAA_LTGcore_CT_RTGcore_AA] (site GCGCGACCTAA) (LTG core: CT, RTG core: AA)”: 0.0792.
As to “GCGCGACTCTGGGTTCTAACCTGTTGCTTAG [GCGCGACCTAA_LTGcore_TC_RTGcore_CT] (site GCGCGACCTAA) (LTG core: TC, RTG core: CT)”, the “recombinant barcode read abundance (log10)” value is 0.
On to “GCGCGACTGTGGGTTCTAACCTGTTGCTTCA [GCGCGACCTAA_LTGcore_TG_RTGcore_TG] (site GCGCGACCTAA) (LTG core: TG, RTG core: TG)”, for which the “recombinant barcode read abundance (log10)” value amounted to 0.0758.
Turning to “GCGCGACTTTGGGTTCTAACCTGTTGCTTAG [GCGCGACCTAA_LTGcore_TT_RTGcore_CT] (site GCGCGACCTAA) (LTG core: TT, RTG core: CT)”, the “recombinant barcode read abundance (log10)” value came out at 0.109.
With “GCGGGACATTGGGTTCTAACCTGTTGCCTAG [GCGGGACCTAG_LTGcore_AT_RTGcore_CT] (site GCGGGACCTAG) (LTG core: AT, RTG core: CT)”, the “recombinant barcode read abundance (log10)” value worked out at 0.17.
The same measure for “GCGGGACCATGGGTTCTAACCTGTTGCCTTG [GCGGGACCTAG_LTGcore_CA_RTGcore_CA] (site GCGGGACCTAG) (LTG core: CA, RTG core: CA)”: 0.182; for “GCGGGACCCTGGGTTCTAACCTGTTGCCTAG [GCGGGACCTAG_LTGcore_CC_RTGcore_CT] (site GCGGGACCTAG) (LTG core: CC, RTG core: CT)”: 1.21.
Take “GCGGGACCGTGGGTTCTAACCTGTTGCCTAG [GCGGGACCTAG_LTGcore_CG_RTGcore_CT] (site GCGGGACCTAG) (LTG core: CG, RTG core: CT)”: the “recombinant barcode read abundance (log10)” value came to 0.76.
To “GCGGGACCTTGGGTTCTAACCTGTTGCCTGC [GCGGGACCTAG_LTGcore_CT_RTGcore_GC] (site GCGGGACCTAG) (LTG core: CT, RTG core: GC)” belongs 1.08; to “GCGGGACCTTGGGTTCTAACCTGTTGCCTTA [GCGGGACCTAG_LTGcore_CT_RTGcore_TA] (site GCGGGACCTAG) (LTG core: CT, RTG core: TA)”, 1.18; to “GCGGGACCTTGGGTTCTAACCTGTTGCCTTC [GCGGGACCTAG_LTGcore_CT_RTGcore_GA] (site GCGGGACCTAG) (LTG core: CT, RTG core: GA)”, 1.19.
Consider “GCGGGACGTTGGGTTCTAACCTGTTGCCTAC [GCGGGACCTAG_LTGcore_GT_RTGcore_GT] (site GCGGGACCTAG) (LTG core: GT, RTG core: GT)”, for which the “recombinant barcode read abundance (log10)” value was found to be 0.163.
The same measure for “GCGGGACTTTGGGTTCTAACCTGTTGCCTAG [GCGGGACCTAG_LTGcore_TT_RTGcore_CT] (site GCGGGACCTAG) (LTG core: TT, RTG core: CT)”: 0.13.

These data come from the supplement of paper PMC11208160.
